One assay concerns NCI-H460. The arrangement: method as in earlier work. The following applies: reference drugs; cited from earlier work.
Assay [1] deals with Capan-1 (pancreatic adenocarcinoma). Briefly: Cell proliferation assay (IncuCyte). The assay is classed as cell-based. As to the method: (§1) A parallel cytotoxicity assay was performed on non-cancerous retina cells (hTERT RPE-1) in order to estimate the selectivity of the investigated compounds towards tumor cells. The inhibition of cell proliferation was calculated as IC50 by interpolation based on the semi-log dose response.
(§2) All cell lines were cultured as recommended by the suppliers. Culture media were purchased from Gibco Life Technologies, USA, and supplemented with 10% fetal bovine serum (HyClone, GE Healthcare Life Sciences, Logan, UT, USA). […] All stock solutions were prepared in DMSO.
(§3) After overnight incubation, cells were treated with the test compounds at seven different concentrations ranging from 100 to 6.4 × 10^−3 µM. […] The plates were incubated at 37 °C and monitored for 72 h in an IncuCyte® device (Essen BioScience Inc., Ann Arbor, MI, USA) for real-time imaging. Images were taken every 3 h, with one field imaged per well under 10× magnification. Cell growth was then quantified based on the percent cellular confluence as analysed by the IncuCyte® image analysis software and used to calculate IC50 values by linear interpolation. All tests have been performed in duplicate and the average values have been calculated.

Assay [2] has as its system HCT-116 (colorectal carcinoma). Briefly: Cell proliferation assay (IncuCyte). Format: cell-based. As to the method: as §1, §2, §3
Assay [3] deals with NCI-H460 (lung carcinoma). Briefly: Cell proliferation assay (IncuCyte). The assay is classed as cell-based. As to the method: as §1, §2, §3
For assay [4], the system named is Z-138 (non-Hodgkin lymphoma). Briefly: Cell proliferation assay (IncuCyte). The assay is classed as cell-based. How it is done: as §1, §2, §3
Assay [5] deals with HL-60 (acute myeloid leukemia). Kind of assay: Cell proliferation assay (IncuCyte). The assay is classed as cell-based. How it is done: as §1, §2, §3
Assay [6] deals with DND-41 (acute lymphoblastic leukemia). Briefly: Cell proliferation assay (IncuCyte). Format: cell-based. As to the method: as §1, §2, §3
Assay [7] has as its system K-562 (chronic myeloid leukemia). Briefly: Cell proliferation assay (IncuCyte). Format: cell-based. As to the method: as §1, §2, §3
Assay [8] relates to seven different tumor cell lines. Briefly: Proliferation assays, best value over the seven tumor cell lines. Format: cell-based. As to the method:
as §1, §2, §3

In another assay the test system is hTERT RPE-1. Kind of assay: Parallel cytotoxicity assay on non-cancerous retina cells. The note with it: hTERT-RPE1, 72 h, duplicate, mean ± deviation. Format: cell-based. As to the method: as §1, §2, §3

A word on the IC50: it is the midpoint of a concentration-inhibition curve. As to `N.N.[Cl][Pt][Cl]` [Cisplatin], in the assay on NCI-H460, the half-maximal inhibitory concentration (IC50) was 5.33 µM.

Consider `COC(=O)C1(C)CCCC2(C)C3CCC4CC3(CCC12)CC41CCCN1` (stereo not shown) [Compound 13], for which the IC50 in assay [1] (Homo sapiens, CAPAN-1, 72 h, duplicate, mean ± deviation) turned out to be 11.5 ± 1 µM; in [2] (Homo sapiens, HCT-116, 72 h, duplicate, mean ± deviation), 11.6 ± 0.5 µM; in assay [3] (Homo sapiens, NCI-H460, 72 h, duplicate, mean ± deviation), 1 ± 0.1 µM; in assay [4] (Homo sapiens, Z-138, 72 h, duplicate, mean ± deviation) it was 9.5 ± 0.9 µM; in assay [5] (Homo sapiens, HL-60, 72 h, duplicate, mean ± deviation), 8.3 ± 1.3 µM; in assay [6] (DND41, 72 h, duplicate, mean ± deviation), 6.1 ± 1.1 µM. Besides, the IC50 in assay [7] (Homo sapiens, K562, 72 h, duplicate, mean ± deviation) worked out at 3.2 ± 1 µM; in assay [8] (lowest IC50 over the tumor cell lines (Figure 4), read-out: IC50 min) it was 1 ± 0.1 µM; with hTERT RPE-1, 32.2 ± 2 µM. Further, the “SI Capan-1” value in assay [1] (ratio IC50 hTERT RPE-1 / IC50 Capan-1) came to 2.8. Also, the “SI HCT-116” value in assay [2] (ratio IC50 hTERT RPE-1 / IC50 HCT-116) was 2.8. In addition, in assay [3] (ratio IC50 hTERT RPE-1 / IC50 NCI-H460), the “SI NCI-H460” value was determined as 32.2. Moreover, the “SI Z-138” value in assay [4] (ratio IC50 hTERT RPE-1 / IC50 Z-138) was 3.4. For the same compound, in assay [5] (ratio IC50 hTERT RPE-1 / IC50 HL-60), the “SI HL-60” value was determined as 3.9. The “SI DND-41” value in assay [6] (ratio IC50 hTERT RPE-1 / IC50 DND-41) is on record as 5.3. Further, in assay [7] (ratio IC50 hTERT RPE-1 / IC50 K-562), the “SI K-562” value is on record as 10.1. For the same compound, the SImax in [8] (highest selectivity index over the tumor cell lines (Figure 4)) worked out at 32.2. Besides, the “IC50 for retina (hTERT RPE-1) cells fold higher than for cancerous cells” value in assay [8] (highest selectivity indices) is recorded as “up to 43 fold”.
